We go through 1 sequence from patent US10682388B2, “Targeting of PELP1 in cancer therapy” (THE BOARD OF REGENTS OF THE UNIVERSITY OF TEXAS SYSTEM, priority 2014, dated 2020).

Assay [1] concerns G9a target genes Pecam1, Serac1, Rb1 and Bmi1 in ZR75 cells. In words: qRTPCR of G9a target genes. The settings on record: 10 μM, FIG. 3B. It is filed as cell-based, Human. On the procedure:
FIGS. 3A-F. (FIG. 3A) Recombinant histones were incubated with G9a with increasing concentrations of PELP1, incubated 1 hour at 30° C. and western blot analysis was performed for expression of H3K9me2. Total histone H3 is shown as the control. (FIG. 3B) qRTPCR analysis of ZR75 and ZRPELP1KD cells treated with 10 μM TAT or PIP1 for 24 hours. G9a target genes PECAM1, SERAC1, RB1 and BMI1 expression is shown as—fold change over actin. (FIG. […]) ChIP-sequencing location analysis of H3K9me2 in control ZR75 model cells. (FIG. 3D) ChIP-sequencing location analysis of H3K9me2 in stable ZR75PELP1KD cells. (FIG. 3E) Ingenuity pathway analysis of genes from binding peaks of ChIP-sequencing of H3K9me2 in stable PELP1 ZR75PELP1KD cells. (FIG. 3F) Image from Integrated Genome Viewer of ChIP-sequencing of H3K9me2 in ZR75 and ZRPELP1KD cells.
Model cells ZR75 and ZRPELP1KD were grown in 8% DCC media for 72 hours and treated with TAT or PIP1 (10 μM) for […]. RNA was isolated by Trizol and cDNA was synthesized by Superscript III First Strand reverse transcriptase (Invitrogen). qPCR was performed in triplicate by SyberGreen using an Illumina Eco Real-Time PCR System. Gene expression was normalized to actin.

Assay [2] has as its system ZR75, ZR75PELP1, MCF7 and MCF7PELP1 cells. In words: MTT proliferation assay, breast cancer cells with and without PELP1 overexpression. It is filed as cell-based, Human. The settings on record: 10 μM every 3 days, day 7, FIG. 4A. The protocol:
FIGS. 4A-E. (FIG. 4A) ZR75vec, ZR75PELP1, MCF7vec and MCF7PELP1 cells were treated in triplicate with TAT, PIP1 or PIP1 deletions (Del1, Del2, Del3) at 10 uM every 3 days and proliferation was measured by MTT assay on day 7. (FIG. 4B) ZRPELP1 cells were transfected with ERE-luciferase and treated with TAT, PIP1, or PIP2 for 24 hours and with estradiol for 12 hours. Relative luciferase activity was measured in triplicate. (FIG. 4C) ZR75 cells were grown in 5% DCC media for 72 hours, treated with TAT or PIP1 every 3 days, and treated with estradiol 10^−7 M for 12 hours. Proliferation was measured in triplicate on day 7 by MTT assay at 595 nm. (FIG. 4D) MCF7-Letrozole resistant cells were grown in 5% DCC media for 72 hours, treated with TAT, PIP1 or PIP2 every 3 days, and letrozole or estradiol 10^−7 M for 12 hours. Proliferation was measured in triplicate on day 7 by MTT assay at 595 nm. […] Proliferation was measured in triplicate on day 7 by MTT assay at 595 nm.
Cell proliferation rates were measured by using MTT Cell Viability Assay in 96-well plates. […] After an overnight incubation, cells were treated with varying concentrations of the peptides for 3-7 days and growth inhibition was determined by using traditional MTT assay (Sigma) following manufacturer's instructions.

In assay [3] the test system is Beta-catenin reporter in ZRGST and ZRPELP1GST cells. In words: TopFlash β-catenin reporter assay. It is filed as cell-based. Conditions: 10 μM, 24 hours, independent of ERα, FIG. 7C. The protocol: FIGS. 7A-E. (FIG. 7A) Bacterial purified PELP1 was incubated with biotin-tagged peptides bound to avidin beads for one hour. Beads were washed, run on SDS-PAGE gel and probed for PELP1 expression. Input of bacterial PELP1 is shown as control. (FIG. 7B) Recombinant G9a-GST was bound to glutathione beads and incubated with purified PELP1 and peptides for 2 hours. Beads were washed and run on SDS-PAGE gel. (+2 μM, ++5 μM, +++10 μM). (FIG. 7C) ZRGST and ZRPELP1GST cells were transfected in triplicate with TopFlash β-catenin reporter and treated with TAT or PIP1 (10 μM) for 24 hours. Relative luciferase activity is shown. (FIG. 7D) MCF7vec and MCF7PELP1 cells were treated with TAT or PIP1 (10 μM) and toxicity was measured by CytoTox-Flour Cytotoxicity Assay. (FIG. 7E) ZR75 and ZR75PELP1 cells were treated with TAT, PIP1 or PIP2 for 24 hours and immunoblotted for PELP1 and ERα expression with actin as the loading control.

Another assay relates to ZR75 cells. In words: TUNEL assay. It is filed as cell-based, Human. Conditions: 10 μM, 24 hours, FIG. 5D. The protocol:
FIGS. 5A-D. (FIG. 5A) ZR75vec, ZR75PELP1, MCF7vec and MCF7PELP1 cells were plated in the top of a Boyden chamber transwell, treated with TAT, PIP1 or PIP2 (10 μM) and absorbance was measured at 12 hours in triplicate. (FIG. 5B) MCF7vec, MCFP7ELP1, ZR75vec and ZR75PELP1 cells were treated in triplicate with TAT, PIP1 or PIP2 (10 μM) every 3 days, fixed with methanol on day 10 and stained with crystal violet. Average colonies per well are shown. (FIG. 5C) ZR75vec and ZR75PELP1 cells were plated in triplicate in agar with 8% RPMI with TAT, PIP1 or PIP2 (10 μM). Colonies were counted on day 14, representative images are shown on right. (FIG. 5D) ZR75 cells were plated on coverslips in triplicate and treated with TAT or PIP1 (10 μM) for 24 hours. Cells were fixed with paraformaldehyde and labeled with TUNEL and DAPI, representative images are shown on right.
ZR75 and ZR75PELP1 cells were plated on coverslips in 8% RPMI and treated with peptide for 24 hours. Cells were labeled with in situ Cell Death Detection Kit (Roche) according to manufacturer's protocol, imaged by fluorescent microscopy and quantified.

Assay [4] has as its system T98G, LN229 and U251 glioma cells and patient-derived primary GBM cells. The experiment in a line: MTT proliferation assay, glioma cell lines and primary GBM cells. The class given is cell-based. Conditions: FIGS. 15A-D. The protocol: FIGS. 15A-D. PIPs inhibit proliferation of glioma cells. (FIGS. 15A-B) T98G, LN229 and U251 glioma cells were treated with vehicle or varying concentration of PIP1 or PIP3, and proliferation was measured by using the MTT assay. (FIGS. 15C-D) Patient-derived primary GBM cells were treated with PIP1 or PIP3 and proliferation was measured using the MTT assay. Cell proliferation rates were measured by using MTT Cell Viability Assay in 96-well plates. Model cells were seeded in 96-well plates (1×10^3 cells/well) in DMEM or RPMI medium containing 10% serum. After an overnight incubation, cells were treated with varying concentrations of the peptides for 3-7 days and growth inhibition was determined by using traditional MTT assay (Sigma) following manufacturer's instructions.

Regarding GRKKRRQRRRGGMVEFRWSCPGRRKAKA [PIP1], the “expression of G9a target genes Pecam1, Serac1, Rb1 and Bmi1” value in assay [1] is “decrease in the expression G9a upregulated target genes”. The “proliferation by MTT assay” value in assay [2] was “significant decrease”. For the same sequence, in assay [3], the Beta-catenin reporter activity result was “no significant effect on reporter activity”. Also, the “apoptosis by TUNEL assay” value in the assay on ZR75 cells is reported as “induces apoptosis”. The “concentration of potent activity on glioma proliferation” value in assay [4] amounted to 50 µM. In assay [4] (varying concentration), the “proliferation of glioma cell lines and primary GBM cells” value is “significantly reduced their proliferation in a dose-dependent manner”.
